# From ChEMBL document CHEMBL4043239, “Discovery and optimization of oxadiazole-based FLAP inhibitors” (Bioorg Med Chem Lett, 2017)
# Key:
# hERG (KCNH2) [1] = molecular target: T1, hERG (KCNH2) (Homo sapiens, UniProt Q12809); test: Inhibition of human ERG expressed in CHO cells at 11 uM at -70mV holding potential measured after 300 secs by IonWorks electrophysiology method relative to control; format: cell-based; conditions: CHO cells expressing human ERG
# [2] = Aqueous kinetic solubility of the compound at pH 7.4; format: physicochemical; conditions: for solubility kinetic: aqueous, read-out: Kinetic_solubility; for Kinetic_solubility: buffer
# [3] = molecular target: T2, Arachidonate 5-lipoxygenase-activating protein (Homo sapiens, UniProt P20292); test: Displacement of [125I]-L-691831 from human FLAP expressed in Sf9 cell membranes after 2 hrs by Topcount method
# T2 sequence (P20292 whole entry): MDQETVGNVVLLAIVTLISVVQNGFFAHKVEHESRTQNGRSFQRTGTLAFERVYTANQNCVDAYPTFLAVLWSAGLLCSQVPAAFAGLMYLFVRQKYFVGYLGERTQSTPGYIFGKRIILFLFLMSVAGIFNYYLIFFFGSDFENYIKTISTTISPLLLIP
# [4] = molecular target: T2, Arachidonate 5-lipoxygenase-activating protein; test: Inhibition of FLAP in calcimycin-stimulated human whole blood assessed as reduction in LTB4 production pretreated for 15 mins followed by calcimycin addition after 30 mins by ELISA
# [5] = Stability in human liver microsomes at 1 uM pretreated for 10 mins followed by NADPH addition after 60 mins by LC/MS analysis relative to hepatic blood flow; format: ADME, microsome; conditions: read-out: Stability
# hERG (KCNH2) [6] = molecular target: T1, hERG (KCNH2); test: Inhibition of human ERG expressed in CHO cells at 13 uM at -70mV holding potential measured after 300 secs by IonWorks electrophysiology method relative to control; format: cell-based; conditions: CHO cells expressing human ERG
# [7] = molecular target: T3, Arachidonate 5-lipoxygenase-activating protein (Homo sapiens) (UniProt P20292); test: Ratio of IC50 for FLAP in calcimycin-stimulated human whole blood to IC50 for displacement of [125I]-L-691831 from human FLAP expressed in Sf9 cell membranes
# T3 sequence (whole entry): T2 sequence (P20292 whole entry)
# hERG (KCNH2) [8] = molecular target: T1, hERG (KCNH2); test: Inhibition of human ERG expressed in CHO cells at 33 uM at -70mV holding potential measured after 300 secs by IonWorks electrophysiology method relative to control; format: cell-based; conditions: CHO cells expressing human ERG
# hERG (KCNH2) [9] = molecular target: T1, hERG (KCNH2); test: Inhibition of human ERG expressed in CHO cells at 14 uM at -70mV holding potential measured after 300 secs by IonWorks electrophysiology method relative to control; format: cell-based; conditions: CHO cells expressing human ERG
# [10] = Aqueous equilibrium solubility in citric acid/disodium phosphate buffer at pH 6.8 at 1 uM after 24 hrs by HPLC method; format: physicochemical; conditions: for solubility thermodynamic at 24 h, 1 µM: citric acid/disodium phosphate buffer, pH 6.8
# hERG (KCNH2) [11] = molecular target: T1, hERG (KCNH2); test: Inhibition of human ERG expressed in HEK293 cells at 30 uM by whole-cell patch clamp method relative to control; format: cell-based; conditions: HEK293 cells expressing human ERG
# [12] = Clearance in human hepatocytes at 1 uM measured after 1 hr by LC/MS analysis relative to hepatic blood flow; format: ADME, cell-based, Hepatocyte
# hERG (KCNH2) [13] = molecular target: T1, hERG (KCNH2); test: Inhibition of human ERG expressed in HEK293 cells at 37 uM by whole-cell patch clamp method relative to control; format: cell-based; conditions: HEK293 cells expressing human ERG
# hERG (KCNH2) [14] = molecular target: T1, hERG (KCNH2); test: Inhibition of human ERG expressed in CHO cells at 9 uM at -70mV holding potential measured after 300 secs by IonWorks electrophysiology method relative to control; format: cell-based; conditions: CHO cells expressing human ERG
# hERG (KCNH2) [15] = molecular target: T1, hERG (KCNH2); test: Inhibition of human ERG expressed in CHO cells at 21 uM at -70mV holding potential measured after 300 secs by IonWorks electrophysiology method relative to control; format: cell-based; conditions: CHO cells expressing human ERG
# T1 sequence (Q12809 whole entry): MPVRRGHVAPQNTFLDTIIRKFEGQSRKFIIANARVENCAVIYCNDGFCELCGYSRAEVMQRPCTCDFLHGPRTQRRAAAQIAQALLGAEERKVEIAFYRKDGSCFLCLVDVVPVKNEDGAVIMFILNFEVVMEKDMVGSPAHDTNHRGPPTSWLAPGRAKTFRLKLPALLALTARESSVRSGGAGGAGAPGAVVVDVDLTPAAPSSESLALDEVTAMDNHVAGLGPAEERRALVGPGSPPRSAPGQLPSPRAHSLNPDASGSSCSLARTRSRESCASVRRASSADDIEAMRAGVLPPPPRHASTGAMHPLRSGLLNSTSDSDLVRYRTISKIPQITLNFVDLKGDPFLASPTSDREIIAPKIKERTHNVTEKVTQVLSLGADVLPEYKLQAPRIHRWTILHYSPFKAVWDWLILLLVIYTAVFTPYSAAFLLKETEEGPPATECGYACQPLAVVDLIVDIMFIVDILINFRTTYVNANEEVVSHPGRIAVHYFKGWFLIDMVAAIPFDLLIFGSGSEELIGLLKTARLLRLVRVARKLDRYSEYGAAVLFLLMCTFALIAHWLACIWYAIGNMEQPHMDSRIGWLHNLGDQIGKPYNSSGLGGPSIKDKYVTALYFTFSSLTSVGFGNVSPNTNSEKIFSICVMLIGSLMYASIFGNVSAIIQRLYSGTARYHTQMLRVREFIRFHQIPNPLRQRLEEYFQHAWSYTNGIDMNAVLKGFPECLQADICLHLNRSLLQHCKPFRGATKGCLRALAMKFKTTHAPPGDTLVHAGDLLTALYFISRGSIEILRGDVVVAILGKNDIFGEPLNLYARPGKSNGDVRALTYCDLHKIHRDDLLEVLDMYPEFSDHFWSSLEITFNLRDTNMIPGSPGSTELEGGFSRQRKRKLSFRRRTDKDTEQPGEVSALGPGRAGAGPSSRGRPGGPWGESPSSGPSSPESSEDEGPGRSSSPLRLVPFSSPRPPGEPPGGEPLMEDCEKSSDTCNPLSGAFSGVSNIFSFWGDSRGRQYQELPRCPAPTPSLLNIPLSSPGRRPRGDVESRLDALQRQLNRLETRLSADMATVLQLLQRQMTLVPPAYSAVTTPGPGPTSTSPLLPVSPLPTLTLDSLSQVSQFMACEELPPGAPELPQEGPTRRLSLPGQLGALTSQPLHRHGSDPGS
SMILES,solubility kinetic [2],IC50 [3],IC50 [4],"hepatic extraction ratio at 1 h, 1 µM [5]",further results
Nc1ncc(-c2ccc(C3(c4noc(N5CCC(CO)CC5)n4)CCC3)cc2)cn1,14 µg/mL,46 nM,173 nM,0.36,"inhibition at 5 min, 13 µM (hERG (KCNH2) [6]): 68%"
Nc1ncc(-c2ccc(C3(c4noc(N5CCNCC5)n4)CCC3)cc2)cn1,> 37 µg/mL,324 nM,680 nM,0.35,Ratio IC50 [7]: 2
Nc1ncc(-c2ccc(C3(c4noc(N5CCCCC5)n4)CCC3)cc2)cn1,4.1 µg/mL,–,387 nM,–,"inhibition at 5 min, 33 µM (hERG (KCNH2) [8]): 92%; Ratio IC50 [7]: 59"
CC(C)OC1CCN(c2nc(C3(c4ccc(-c5cnc(N)nc5)cc4)CCC3)no2)CC1,16 µg/mL,48 nM,174 nM,0.37,"inhibition at 5 min, 14 µM (hERG (KCNH2) [9]): 85%"
Nc1ncc(-c2ccc(C3(c4noc(N5CCN(CC6CCCO6)CC5)n4)CCC3)cc2)cn1 (stereo not given),26 µg/mL,92 nM,182 nM,0.49,Ratio IC50 [7]: 2
CN(c1cnn(C)c1)c1nc([C@@](C)(c2ccc(-c3cnc(N)nc3)cc2)C2CC2)no1,–,29 nM,92 nM,0.34,"Kinetic_solubility [2]: Soluble; inhibition at 5 min, 9 µM (hERG (KCNH2) [14]): 45%; solubility ([10]; buffer, pH 6.8, 24 h, 1 µM): Soluble"
CC1(O)CCN(c2nc([C@@](C)(c3ccc(-c4cnc(N)nc4)cc3)C3CC3)no2)CC1,–,5.6 nM,13 nM,0.58,"inhibition at 5 min, 21 µM (hERG (KCNH2) [15]): 31%"

# Continued, in another order:
solubility kinetic [2],IC50 [3],IC50 [4],"hepatic extraction ratio at 1 h, 1 µM [5]",SMILES,further results
14 µg/mL,–,–,–,Cn1cc(-c2nc(C3(c4ccc(-c5cnc(N)nc5)cc4)CCC3)no2)cn1,"inhibition at 5 min, 11 µM (hERG (KCNH2) [1]): 25%"
–,6.6 nM,37 nM,< 0.3,CC(C)[C@](C)(c1ccc(-c2cnc(N)nc2)nc1)c1noc(-c2cnn(C3COC3)c2)n1,"Kinetic_solubility [2]: Soluble; solubility thermodynamic at 24 h, 1 µM [10]: 84 µg/mL; inhibition at 30 µM (hERG (KCNH2) [11]): 24%; hepatic extraction ratio at 1 h, 1 µM [12]: 0.34"
16 µg/mL,–,467 nM,–,Nc1ncc(-c2ccc(C3(c4noc(N5CCCC5)n4)CCC3)cc2)cn1,Ratio IC50 [7]: 56
25 µg/mL,–,71 nM,< 0.24,Nc1ncc(-c2ccc(C3(c4noc(-c5cnn(C6COC6)c5)n4)CCC3)cn2)cn1,"inhibition at 5 min, 11 µM (hERG (KCNH2) [1]): < 10%"
–,23 nM,40 nM,< 0.24,CC(C)[C@](C)(c1ccc(-c2cnc(N)nc2)nc1)c1noc(-c2cnn(CC#N)c2)n1,"inhibition at 37 µM (hERG (KCNH2) [13]): 38%; hepatic extraction ratio at 1 h, 1 µM [12]: 0.31"
24 µg/mL,–,270 nM,0.19,Cn1cc(-c2nc(C3(c4ccc(-c5cnc(N)nc5)nc4)CCC3)no2)cn1,"inhibition at 5 min, 11 µM (hERG (KCNH2) [1]): 11%"
> 43 µg/mL,–,124 nM,< 0.24,CC(C)(O)Cn1cc(-c2nc(C3(c4ccc(-c5cnc(N)nc5)nc4)CCC3)no2)cn1,"inhibition at 5 min, 11 µM (hERG (KCNH2) [1]): < 10%; solubility thermodynamic at 24 h, 1 µM [10]: 45 µg/mL; hepatic extraction ratio at 1 h, 1 µM [12]: 0.5"
